Here are results for six compounds from US11091478B2 (Fochon Pharmaceuticals, Ltd., priority 2017, dated 2021).

One experiment deals with RS4;11 cells. Put plainly: Cell proliferation assay (MTS), RS4;11 cells, 72 h. Conditions: Homo sapiens, RS4-11, 72 h. It counts as cell-based. In short, it runs like this: (§1)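 Cells in RPMI-1640 with 10% FBS were seeded at 5000/well, left overnight at 37° C., 5% CO2, then exposed to compound at 10000 down to 1.5 nM (nine concentrations) for 72 h (RS4;11) or 120 h (DOHH2). Viability was read by MTS, 2 h, absorbance at 490/650 nm; IC50 calculated.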

For a further experiment, the system named is DOHH2 cells. Put plainly: Cell proliferation assay (MTS), DOHH2 cells, 120 h. The conditions noted are these: Homo sapiens, DOHH-2, 120 h. It counts as cell-based. In short, it runs like this: as §1

Each structure is given as a SMILES string.

For `CC1(C)CCC(CN2CCN(c3ccc(C(=O)NS(=O)(=O)c4cc5c(c([N+](=O)[O-])c4)N[C@H](Cc4ccc(Cl)cc4)CO5)c(Oc4cnc5[nH]ccc5c4)c3)CC2)=C(c2ccc(Cl)cc2)C1` [Example 2-160, (R)-2-((1H-pyrrolo[2,3-b]pyridin-5-yl)oxy)-4-(4-((4′-chloro-5,5-dimethyl-3,4,5,6-tetra-hydro-[1,1′-biphenyl]-2-yl)methyl)piperazin-yl)-N-((3-(4-chlorobenzyl)-5-nitro-3,4-dihydro-2H-benzo[b][1,4]oxazin-7-yl)sulfo-nyl)benzamide], the IC50 with RS4;11 cells came to 95 nM; in the experiment with DOHH2 cells it was 168 nM.
On the same counts, the results for `CC1(C)CCC(CN2CCN(c3ccc(C(=O)NS(=O)(=O)c4cc5c(c([N+](=O)[O-])c4)O[C@@H](CN4CCOCC4)CO5)c(Oc4cnc5[nH]ccc5c4)c3)CC2)=C(c2ccc(Cl)cc2)C1` [Example 5-1, (S)-2-((1H-pyrrolo[2,3-b]pyridin-5-yl)oxy)-4-(4-((4′-chloro-5,5-dimethyl-3,4,5,6-tetrahydro-[1,1′-biphenyl]-2-yl)methyl)piperazin-1-yl)-N-((2-(morpholinomethyl)-8-nitro-2,3-dihydrobenzo[b][1,4]dioxin-6-yl)sulfonyl)benzamide] are 9 nM and 17 nM.
On the same counts, the results for `COC[C@@H]1COc2cc(S(=O)(=O)NC(=O)c3ccc(N4CCN(CC5=C(c6ccc(Cl)cc6)CC(C)(C)CC5)CC4)cc3Oc3cnc4[nH]ccc4c3)cc([N+](=O)[O-])c2N1` [Example 2-110, (R)-2-((1H-pyrrolo[2,3-b]pyridin-5-yl)oxy)-4-(4-((4′-chloro-5,5-dimethyl-3,4,5,6-tetra-hydro-[1,1′-biphenyl]-2-yl)methyl)piperazin-1-yl)-N-((3-(methoxymethyl)-5-nitro-3,4-dihydro-2H-benzo[b][1,4]oxazin-7-yl)sulfo-nyl)benzamide] are 2 nM and 96 nM.
On the same counts, the results for `CC1(C)CCC(CN2CCN(c3ccc(C(=O)NS(=O)(=O)c4cc5c(c([N+](=O)[O-])c4)N[C@@H](CCN4CCOCC4)C5)c(Oc4cnc5[nH]ccc5c4)c3)CC2)=C(c2ccc(Cl)cc2)C1` [Example 1-16, (R)-2-((1H-pyrrolo[2,3-b]pyridin-5-yl)oxy)-4-(4-((4′-chloro-5,5-dimethyl-3,4,5,6-tetra-hydro-[1,1′-biphenyl]-2-yl)methyl)piperazin-1-yl)-N-((2-(2-morpholinoethyl)-7-nitro-indolin-5-yl)sulfonyl)benzamide] are 16 nM and 73 nM.
In the case of `CC1(C)CCC(CN2CCN(c3ccc(C(=O)NS(=O)(=O)c4cc5c(c([N+](=O)[O-])c4)N[C@@H](CN4C[C@@H]6C[C@H]4CO6)CO5)c(Oc4cnc5[nH]ccc5c4)c3)CC2)=C(c2ccc(Cl)cc2)C1` [Example 2-87, 2-((1H-pyrrolo[2,3-b]pyridin-5-yl)oxy)-N-(((S)-3-(((1S,4S)-2-oxa-5-azabicyclo[2.2.1]heptan-5-yl)methyl)-5-nitro-3,4-dihydro-2H-benzo[b][1,4]oxazin-7-yl)sulfonyl)-4-(4-((4′-chloro-5,5-dimethyl-3,4,5,6-tetrahydro-[1,1′-biphenyl]-2-yl)methyl)piperazin-1-yl) benzamide], the values for the IC50 in the experiment on RS4;11 cells and with DOHH2 cells were 7 nM and 26 nM, respectively.
On the same counts, the results for `C[C@@H]1CN(C[C@H]2COc3cc(S(=O)(=O)NC(=O)c4ccc(N5CCN(CC6=C(c7ccc(Cl)cc7)CC(C)(C)CC6)CC5)cc4Oc4cnc5[nH]ccc5c4)cc([N+](=O)[O-])c3N2)CCN1C` [Example 2-26, 2-((1H-pyrrolo[2,3-b]pyridin-5-yl)oxy)-4-(4-((4′-chloro-5,5-dimethyl-3,4,5,6-tetrahydro-[1,1′-biphenyl]-2-yl)methyl)piperazin-1-yl)-N-(((S)-3-(((R)-3,4-dimethylpiperazin-1-yl)methyl)-5-nitro-3,4-dihydro-2H-benzo [b][1,4]oxazin-7-yl)sulfonyl)benzamide] are 6 nM and 19 nM.
